JP2007509054A, “血管健康を促進するシリルフェノール” (Amylin Pharmaceuticals LLC, priority 2003, dated 2005)

What was measured:
[1] = system: leukocyte recruitment (白血球動員); experiment: Mechanical carotid injury model in ApoE-/- mice: CD45-positive cells / leukocyte recruitment; type: in vivo, mouse; conditions: ApoE-/- male mice, treated 18 h before and daily for 28 days after injury, Fig. 8
[2] = Serum antioxidant activity in rats fed AC3056 in the diet; type: in vivo, rat; conditions: rats fed a diet containing AC3056
serum lipids (血清脂質) = experiment: Ex vivo copper-induced lipid peroxidation of serum lipids (lag phase), rabbits fed compound for 70 days; type: in vivo; conditions: rabbit, Fig. 1
[3] = Serum concentration in rats fed AC3056 in the diet; type: in vivo, rat; conditions: rats fed a diet containing AC3056
carotid artery (頚動脈) = experiment: Mechanical carotid injury model in ApoE-/- mice: quantitative morphometry; type: in vivo, mouse; conditions: ApoE-/- male mice, high-fat diet with 1.25% cholesterol, treated 18 h before and daily for 28 days after injury, Fig. 7
VCAM-1 (VCAM−1) [4] = experiment: IL-4 induced VCAM-1 expression in human coronary artery smooth muscle cells (CASMC); type: cell-based; conditions: IL-4 100 nmol/L, Fig. 2
VCAM-1 (VCAM−1) [5] = experiment: Cytokine (TNF-α) induced VCAM-1 expression in human umbilical vein endothelial cells (HUVEC); type: cell-based; conditions: Fig. 2

SMILES | leukocyte recruitment to the neointimal space after vascular injury (CD45-positive cells) [1] | antioxidant activity in serum [2] | increase in lag phase versus serum concentration (serum lipids (血清脂質)) | mean serum concentration [3] [ng/mL] | intima/media ratio (carotid artery (頚動脈)) | mean lumen thickness (carotid artery (頚動脈)) | mean neointimal thickness (carotid artery (頚動脈)) | inhibition of IL-4 induced VCAM-1 expression (VCAM-1 (VCAM−1) [4]) | inhibition of cytokine-induced (TNF-α) VCAM-1 expression (VCAM-1 (VCAM−1) [5])
COc1ccc([Si](C)(C)COc2cc(C(C)(C)C)c(O)c(C(C)(C)C)c2)cc1 [AC3056] | 白血球動員を阻害する | 血清中の抗酸化活性の増加 | 血清濃度に比例する | 17700 | 内膜/中膜の比が低下する | 平均の内腔厚みが増加する | 平均の新血管内膜の厚みが低下する | – | –
CC(C)(Sc1cc(C(C)(C)C)c(O)c(C(C)(C)C)c1)Sc1cc(C(C)(C)C)c(O)c(C(C)(C)C)c1 [プロブコール] | – | – | – | – | – | – | – | 本発明の化合物より一般的に有効ではない | 同様の濃度範囲にて有効ではない
